This is an account of results in US9067941B2, “Fused heterocyclic azaindane carboxamide CGRP receptor antagonists” (Merck Sharp & Dohme Corp., priority 2010, dated 2015).

The structures appear in SMILES notation.

In the experiment the target is T1, recombinant human CL receptor/RAMP1 (Homo sapiens, UniProt O60894+Q16602).
T1 construct: expressed in transfected cells; membranes
T1 sequence (Q16602 23-461): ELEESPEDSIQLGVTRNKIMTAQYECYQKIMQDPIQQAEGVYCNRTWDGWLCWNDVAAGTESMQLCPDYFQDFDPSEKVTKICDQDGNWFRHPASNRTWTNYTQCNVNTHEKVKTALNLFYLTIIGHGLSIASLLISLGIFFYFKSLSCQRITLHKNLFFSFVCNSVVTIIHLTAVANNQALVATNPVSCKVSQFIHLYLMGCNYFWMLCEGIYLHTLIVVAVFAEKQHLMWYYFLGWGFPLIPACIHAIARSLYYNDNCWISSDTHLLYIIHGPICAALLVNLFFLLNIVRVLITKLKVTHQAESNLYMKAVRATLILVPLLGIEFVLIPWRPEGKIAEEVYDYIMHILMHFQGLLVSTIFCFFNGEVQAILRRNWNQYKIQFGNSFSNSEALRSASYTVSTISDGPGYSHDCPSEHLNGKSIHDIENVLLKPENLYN
T1 sequence (O60894 27-148): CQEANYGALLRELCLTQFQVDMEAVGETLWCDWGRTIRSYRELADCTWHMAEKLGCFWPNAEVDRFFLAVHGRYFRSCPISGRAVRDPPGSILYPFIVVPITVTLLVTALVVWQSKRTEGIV
The experiment is described as follows: Recombinant receptor binding assay (125I-hCGRP displacement, membranes of HEK 293 cells). The note with it: 10 pM 125I-hCGRP, 3 h at room temperature. As for the experimental part:
RECOMBINANT RECEPTOR: Human CL receptor (Genbank accession number L76380) was subcloned into the expression vector pIREShyg2 (BD Biosciences Clontech) as a 5′NheI and 3′ PmeI fragment. Human RAMP1 (Genbank accession number A3001014) was subcloned into the expression vector pIRESpuro2 (BD Biosciences Clontech) as a 5′NheI and 3′NotI fragment. HEK 293 cells (human embryonic kidney cells; ATCC #CRL-1573) were cultured in DMEM with 4.5 g/L glucose, 1 mM sodium pyruvate and 2 mM glutamine supplemented with 10% fetal bovine serum (FBS), 100 units/mL penicillin and 100 μg/mL streptomycin, and maintained at 37° C. and 95% humidity. Cells were subcultured by treatment with 0.25% trypsin with 0.1% EDTA in HBSS. Stable cell line generation was accomplished by co-transfecting 10 μg of DNA with 30 μg Lipofectamine 2000 (Invitrogen) in 75 cm^2 flasks. CL receptor and RAMP1 expression constructs were co-transfected in equal amounts. Twenty-four hours after transfection the cells were diluted and selective medium (growth medium+300 μg/mL hygromycin and 1 μg/mL puromycin) was added the following day. A clonal cell line was generated by single cell deposition utilizing a FACS Vantage SE (Becton Dickinson). Growth medium was adjusted to 150 μg/mL hygromycin and 0.5 μg/mL puromycin for cell propagation.
RECOMBINANT RECEPTOR BINDING ASSAY: Cells expressing recombinant human CL receptor/RAMP1 were washed with PBS and harvested in harvest buffer containing 50 mM HEPES, 1 mM EDTA and Complete™ protease inhibitors (Roche). The cell suspension was disrupted with a laboratory homogenizer and centrifuged at 48,000 g to isolate membranes. The pellets were resuspended in harvest buffer plus 250 mM sucrose and stored at −70° C. For binding assays, 20 μg of membranes were incubated in 1 mL binding buffer (10 mM HEPES, pH 7.4, 5 mM MgCl2, and 0.2% BSA) for 3 h at room temperature containing 10 pM ^125I-hCGRP (GE Healthcare) and antagonist. The assay was terminated by filtration through 96-well GFB glass fiber filter plates (PerkinElmer) that had been blocked with 0.05% polyethyleneimine. The filters were washed 3 times with ice-cold assay buffer (10 mM HEPES, pH 7.4, and 5 mM MgCl2). Scintillation fluid was added and the plates were counted on a Topcount (Packard). Non-specific binding was determined and the data analysis was carried out with the apparent dissociation constant (Ki) determined by using a non-linear least squares fitting the bound CPM data to the equation below:
[formula] Where Y is observed CPM bound, Ymax is total bound counts, Ymin is non specific bound counts, (Ymax−Ymin) is specific bound counts, % Imax is the maximum percent inhibition, % I min is the minimum percent inhibition, radiolabel is the probe, and the Kd is the apparent dissociation constant for the radioligand for the receptor as determined by hot saturation experiments.
One may read the Ki as the equilibrium dissociation constant of an inhibitor or competing ligand from its target. Regarding `O=C(N[C@H]1C[C@@H](c2cccc(F)c2F)Cn2c(CC(F)(F)F)nnc21)c1cnc2c(c1)C[C@@]1(C2)C(=O)Nc2ncccc21` [Example 1.24, (6S)—N-[(6S,8S)-6-(2,3-Difluorophenyl)-3-(2,2,2-trifluoroethyl)-5,6,7,8-tetrahydro[1,2,4]triazolo[4,3-a]pyridin-8-yl]-2′-oxo-1′,2′,5,7-tetrahydrospiro[cyclopenta[b]pyridine-6,3′-pyrrolo[2,3-b]pyridine]-3-carboxamide], the Ki turned out to be 0.19 nM.
Under `O=C(N[C@H]1C[C@@H](c2cccc(F)c2F)Cn2c(CC(F)(F)F)cnc21)c1cnc2c(c1)C[C@@]1(C2)C(=O)Nc2ncccc21` [Example 1.2, (6S)—N-[(6S,8S)-6-(2,3-Difluorophenyl)-3-(2,2,2-trifluoroethyl)-5,6,7,8-tetrahydroimidazo[1,2-a]pyridin-8-yl]-2′-oxo-1′,2′,5,7-tetrahydrospiro[cyclopenta[b]pyridine-6,3′-pyrrolo[2,3-b]pyridine]-3-carboxamide] stands 0.05 nM.
Under `C[C@@H]1[C@H](c2ccccc2)C[C@H](NC(=O)c2cnc3c(c2)C[C@@]2(C3)C(=O)Nc3ncccc32)c2nnc(C3(C(F)(F)F)CC3)n21` [Example 1.27, (6S)—N-{(5R,6S,8S)-5-Methyl-6-phenyl-3-[1-(trifluoromethyl)cyclopropyl]-5,6,7,8-tetrahydro[1,2,4]triazolo[4,3-a]pyridin-8-yl}-2′-oxo-1′,2′,5,7-tetrahydrospiro[cyclopenta[b]pyridine-6,3′-pyrrolo[2,3-b]pyridine]-3-carboxamide] stands 0.36 nM; under `C[C@@H]1[C@H](c2ccccc2)C[C@H](NC(=O)c2cnc3c(c2)C[C@@]2(C3)C(=O)Nc3ncccc32)c2ncc(CC(F)(F)F)n21` [Example 1.25], 0.06 nM.
Turning to `C[C@@H]1[C@H](c2ccccc2)C[C@H](NC(=O)c2cnc3c(c2)C[C@@]2(C3)C(=O)Nc3ncncc32)c2ncc(C(C)(C)O)n21` [Example 2.1, (6S)—N-[(5R,6S,8S)-3-(2-Hydroxypropan-2-yl)-5-methyl-6-phenyl-5,6,7,8-tetrahydroimidazo[1,2-a]pyridin-8-yl]-6′-oxo-5,6′,7,7′-tetrahydrospiro[cyclopenta[b]pyridine-6,5′-pyrrolo[2,3-d]pyrimidine]-3-carboxamide], the Ki turned out to be 0.56 nM.
As for `COC(C)(C)c1cnc2n1C[C@H](c1cccc(F)c1F)C[C@@H]2NC(=O)c1cnc2c(c1)C[C@@]1(C2)C(=O)Nc2ncccc21` [Example 1.11, (6S)—N-[(6S,8S)-6-(2,3-Difluorophenyl)-3-(2-methoxypropan-2-yl)-5,6,7,8-tetrahydroimidazo[1,2-a]pyridin-8-yl]-2′-oxo-1′,2′,5,7-tetrahydrospiro[cyclopenta[b]pyridine-6,3′-pyrrolo[2,3-b]pyridine]-3-carboxamide], the Ki was 0.02 nM.
The value for `C[C@@H]1[C@H](c2ccccc2)C[C@H](NC(=O)c2cnc3c(c2)C[C@@]2(C3)C(=O)Nc3ncccc32)c2ncc(C(C)(C)O)n21` [Example 1.26, (6S)—N-[(5R,6S,8S)-3-(2-Hydroxypropan-2-yl)-5-methyl-6-phenyl-5,6,7,8-tetrahydroimidazo[1,2-a]pyridin-8-yl]-2′-oxo-1′,2′,5,7-tetrahydrospiro[cyclopenta[b]pyridine-6,3′-pyrrolo[2,3-b]pyridine]-3-carboxamide] was 0.14 nM.
